“Also recorded” adds a separate entry of the source.
Tests used:
hMC3R [1] = target: T1, hMC3R (Homo sapiens, UniProt P41968); experiment: Membrane binding assay, 125I-NDP-alpha-MSH competition; conditions: ratio IC50 MC-3R / IC50 MC-4R
T1 construct: expressed in transfected cells; host or cells: CHO- or L-cells or other eukaryotic cells
Experimental: (§1) The membrane binding assay was used to identify competitive inhibitors of ^125I-NDP-alpha-MSH binding to cloned human MCRs expressed in mouse L- or Chinese hamster ovary (CHO)-cells.
(§2) Cell lines expressing melanocortin receptors were grown in T-180 flasks containing selective medium of the composition: 1 L Dulbecco's modified Eagles Medium (DMEM) with 4.5 g L-glucose, 25 mM Hepes, without sodium pyruvate, (Gibco/BRl); 100 ml 10% heat-inactivated fetal bovine serum (Sigma); 10 mL 10,000 unit/mL penicillin & 10,000 μg/mL streptomycin (Gibco/BRl); 10 ml 200 mM L-glutamine (Gibco/BRl); 1 mg/mL geneticin (G418) (Gibco/BRl). The cells were grown at 37° C. with CO2 and humidity control until the desired cell density and cell number was obtained.
(§3) The medium was poured off and 10 mls/T-180 flask of enzyme-free dissociation media (Specialty Media Inc.) was added. The cells were incubated at 37° C. for 10 min or until cells sloughed off when flask was banged against hand.
(§4) The cells were harvested into 200 mL centrifuge tubes and spun at 1000 rpm, 4° C., for 10 min. […]
(§5) The mixture was filtered with Packard Microplate 196 filter apparatus using Packard Unifilter 96-well GF/C filter with 0.1% polyethyleneimine (Sigma). […] The top was sealed and the radioactivity quantitated in a Packard Topcount Microplate Scintillation counter.

hMC5R [2] = target: T2, hMC5R (Homo sapiens, UniProt P33032); experiment: as above; conditions: ratio IC50 MC-5R / IC50 MC-4R
T2 construct: expressed in transfected cells; host or cells: CHO- or L-cells or other eukaryotic cells
Experimental: as §1, §2, §3, §4, §5

Male Wistar rats = experiment: Maintenance operant nicotine self-administration; type: in vivo, rat
Experimental: Animals: Male Wistar rats were used in all experiments. Body weight was 180-200 g at the start of the experiments. Rats were housed 2-3 per cage with food and water available ad libitum. Lights were on a 12-hour light/dark cycle, with lights on at 0600. All procedures met the guidelines of the National Institutes of Health Guide for the Care and Use of Laboratory Animals.
Operant Nicotine Self-Administration: Nicotine (Sigma Chemical Co., St. Louis, Mo.) was added to saline to achieve a concentration of 0.03 mg/ml. Standard operant chambers (Med Associates, VT) housed in sound-attenuated chambers were used for nicotine self-administration. Syringe pumps delivered nicotine via tygon tubing. The two retractable levers were located 12 cm apart and 4 cm above the floor. Fluid delivery and recording of operant responding were controlled by microcomputer. Rats were trained on a […] fixed-ratio 4 (FR4) schedule to self-administer nicotine (0.03 mg/ml, 0.1 ml per delivery) in 60 minute sessions. Once reliable levels of nicotine-reinforced self-administration were achieved, the effect of Compound A (0, and 20 mg/kg) on maintenance levels of responding was investigated.

hMC1bR = hMC1bR (Homo sapiens, UniProt Q01726); experiment: cAMP functional assay (agonist); type: cell-based; conditions: selective functional activity
Experimental: (§6) Cells (for example, CHO- or L-cells or other eukaryotic cells) expressing a human melanocortin receptor (see e.g. Yang-Y K; Ollmann-M M; Wilson-B D; Dickinson-C; Yamada-T; Barsh-G S; Gantz-I; Mol-Endocrinol. 1997 March; 11(3): 274-80) were dissociated from tissue culture flasks by rinsing with Ca and Mg free phosphate buffered saline (14190-136, Life Technologies, Gaithersburg, Md.) and detached following 5 min incubation at 37° C. with enzyme free dissociation buffer (S-0,4-B, Specialty Media, Lavellette, N.J.). Cells were collected by centrifugation and resuspended in Earle's Balanced Salt Solution (14015-069, Life Technologies, Gaithersburg, Md.) with additions of 10 mM HEPES pH 7.5, 5 mM MgCl2, 1 mM glutamine and 1 mg/ml bovine serum albumin. Cells were counted and diluted to 1 to 5×10^6/mL. The phosphodiesterase inhibitor 3-isobutyl-1-methylxanthine was added to cells to 0.6 mM.
(§7) Agonist Assay: Test compounds were diluted in dimethylsulfoxide (DMSO) (10^−5 to 10^−10 M) and 0.1 volume of compound solution was added to 0.9 volumes of cell suspension; the final DMSO concentration was […]. After room temperature incubation for 45 min, cells were lysed by incubation at 100° C. for 5 min to release accumulated cAMP.
(§8) cAMP was measured in an aliquot of the cell lysate with the Amersham (Arlington Heights, Ill.) cAMP detection assay (RPA556). The amount of cAMP production which resulted from an unknown compound was compared to that amount of cAMP produced in response to alpha-MSH which was defined as a 100% agonist. The EC50 is defined as the compound concentration which results in half maximal stimulation, when compared to its own maximal level of stimulation.

hMC3R [3] = target: T1, hMC3R; experiment: cAMP functional assay (agonist); type: cell-based
Experimental: as §6, §7, §8

hMC2R = target: T3, hMC2R (Homo sapiens, UniProt Q01718); experiment: cAMP functional assay (agonist); type: cell-based
T3 construct: expressed in transfected cells; host or cells: CHO- or L-cells or other eukaryotic cells
Experimental: as §6, §7, §8

hMC5R [4] = target: T2, hMC5R; experiment: cAMP functional assay (agonist); type: cell-based
Experimental: as §6, §7, §8

[5] = selective functional activity, 45 min

T2 sequence (P33032 whole entry): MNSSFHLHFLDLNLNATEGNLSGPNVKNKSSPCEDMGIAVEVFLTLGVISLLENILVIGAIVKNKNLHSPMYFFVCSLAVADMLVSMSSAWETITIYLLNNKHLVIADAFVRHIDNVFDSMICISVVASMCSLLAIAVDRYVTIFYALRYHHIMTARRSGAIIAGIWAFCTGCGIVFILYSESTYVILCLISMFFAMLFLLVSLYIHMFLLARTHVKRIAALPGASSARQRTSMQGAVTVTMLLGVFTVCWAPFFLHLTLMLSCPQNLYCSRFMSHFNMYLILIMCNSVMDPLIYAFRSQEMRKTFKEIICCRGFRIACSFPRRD
T1 sequence (P41968 whole entry): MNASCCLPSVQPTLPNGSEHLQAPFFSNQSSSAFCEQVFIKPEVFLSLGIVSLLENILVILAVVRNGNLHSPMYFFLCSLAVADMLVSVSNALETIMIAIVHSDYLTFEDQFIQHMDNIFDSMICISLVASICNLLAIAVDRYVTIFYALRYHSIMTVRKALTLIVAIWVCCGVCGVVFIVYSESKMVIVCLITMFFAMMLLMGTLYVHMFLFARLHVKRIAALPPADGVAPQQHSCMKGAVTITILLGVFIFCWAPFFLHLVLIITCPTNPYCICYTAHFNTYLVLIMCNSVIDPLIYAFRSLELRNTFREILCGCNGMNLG
T3 sequence (Q01718 whole entry): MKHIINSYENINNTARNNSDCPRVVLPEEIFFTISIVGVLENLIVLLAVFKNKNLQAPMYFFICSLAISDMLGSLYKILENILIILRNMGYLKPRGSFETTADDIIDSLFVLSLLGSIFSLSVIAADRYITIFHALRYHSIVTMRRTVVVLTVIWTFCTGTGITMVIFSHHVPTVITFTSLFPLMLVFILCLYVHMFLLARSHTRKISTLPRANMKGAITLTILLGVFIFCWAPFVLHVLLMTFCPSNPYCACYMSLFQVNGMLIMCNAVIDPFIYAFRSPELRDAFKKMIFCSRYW
Chain of hMC1bR (Q01726 whole entry): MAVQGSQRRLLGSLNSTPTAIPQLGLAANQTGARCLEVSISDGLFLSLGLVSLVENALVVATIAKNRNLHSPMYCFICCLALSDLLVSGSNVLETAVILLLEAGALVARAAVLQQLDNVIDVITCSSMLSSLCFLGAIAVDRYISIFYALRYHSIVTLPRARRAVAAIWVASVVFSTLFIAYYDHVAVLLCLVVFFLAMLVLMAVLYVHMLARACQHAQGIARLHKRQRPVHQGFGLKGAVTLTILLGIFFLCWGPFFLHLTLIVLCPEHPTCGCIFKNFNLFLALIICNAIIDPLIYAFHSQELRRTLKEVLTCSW

CC[C@H](NC(C)=O)c1cc(Cl)ccc1C1CCN(C(=O)[C@@H]2CN(C(C)(C)C)C[C@H]2c2ccc(F)cc2F)CC1 [Compound A]
Selectivity Binding IC50 3R/4R (hMC3R [1]): 163.6 | Selectivity Binding IC50 5R/4R (hMC5R [2]): 36.36 | effect on maintenance levels of nicotine self-administration (nicotine infusions) (Male Wistar rats; 20 mg/kg po prior to testing, 60 minute session, vs baseline (p=0.0001)): significant reductions from baseline levels; also recorded: significant reduction | response rates on the alternate (non-drug reinforced) lever (Male Wistar rats; Wistar rats, any dose tested (0, 20 mg/kg)): not significantly altered; also recorded: no significant effects | reduction of nicotine self administration (Male Wistar rats; Wistar rats, pre-treatment, maintenance period of regular nicotine use): approximately 85% | EC50 for melanocortin 4 receptor lower than for melanocortin 1 receptor (hMC1bR): at least 120 fold | Selectivity cAMP EC50 3R/4R (hMC3R [3]; ratio EC50 MC-3R / EC50 MC-4R): 65.71 | EC50 for melanocortin 4 receptor lower than for melanocortin 3 receptor (hMC3R [3]; [5]): at least 65 fold | Selectivity cAMP EC50 2R/4R (hMC2R; ratio EC50 MC-2R / EC50 MC-4R): >714.2 | EC50 for melanocortin 4 receptor lower than for melanocortin 2 receptor (hMC2R; [5]): at least 700 fold | Selectivity cAMP EC50 5R/4R (hMC5R [4]; ratio EC50 MC-5R / EC50 MC-4R): 100 | EC50 for melanocortin 4 receptor lower than for melanocortin 5 receptor (hMC5R [4]; [5]): at least 100 fold

Reference: patent US20080021067A1, “Methods For The Treatment Of Substance Abuse And Addiction” (priority 2004, published 2008)
